Assays:
[1] = test system: UO-31; assay: NCI growth inhibition (SRB) assay; format: cell-based; conditions: Homo sapiens, UO-31, Renal Cancer, single dose 10 µM, 48 h, read-out: Percent Growth Inhibition (GI)
Method: (§1) The antitumor assay was performed according to the protocol of the Drug Evaluation Branch, NCI, Bethesda. A 48 h drug exposure protocol was adopted, and sulforhodamine B (SRB) assay was utilized to assess the cell growth and viability, as reported earlier.
(§2) The inhibition results of tumor cell growth by the newly synthesized compounds (5a–5g) are described in Table 4. The reported measurements have been performed at the NIH National Cancer Institute, USA by a standardized assay including a panel of 60 different tumor cell lines (Supplementary Data). The following cancer cell types were included in these assays: Leukemia, non-small cell lung cancer, colon cancer, CNS cancer, melanoma, ovarian cancer, renal cancer, prostate, and breast cancer. […] Additionally, the 3,4-dimethoxy substituted compound (5b) also suffered poor activity against the cancer cell lines.

[2] = test system: HOP-92; assay: NCI growth inhibition (SRB) assay; format: cell-based; conditions: Homo sapiens, HOP-92, Non-Small Cell Lung Cancer, single dose 10 µM, 48 h, read-out: Percent Growth Inhibition (GI)
Method: as §1, §2

[3] = test system: MCF7; assay: NCI growth inhibition (SRB) assay; format: cell-based; conditions: Homo sapiens, MCF7, Breast Cancer, single dose 10 µM, 48 h, read-out: Percent Growth Inhibition (GI)
Method: as §1, §2

[4] = test system: MOLT-4; assay: NCI growth inhibition (SRB) assay; format: cell-based; conditions: Homo sapiens, MOLT-4, Leukemia, single dose 10 µM, 48 h, read-out: Percent Growth Inhibition (GI)
Method: as §1, §2

[5] = test system: RXF 393; assay: NCI growth inhibition (SRB) assay; format: cell-based; conditions: Homo sapiens, RXF 393, Renal Cancer, single dose 10 µM, 48 h, read-out: Percent Growth Inhibition (GI)
Method: as §1, §2

[6] = test system: A498; assay: NCI growth inhibition (SRB) assay; format: cell-based; conditions: Homo sapiens, A498, Renal Cancer, single dose 10 µM, 48 h, read-out: Percent Growth Inhibition (GI)
Method: as §1, §2

[7] = test system: KM12; assay: NCI growth inhibition (SRB) assay; format: cell-based; conditions: Homo sapiens, KM12, Colon Cancer, single dose 10 µM, 48 h, read-out: Percent Growth Inhibition (GI)
Method: as §1, §2

[8] = test system: RPMI-8226; assay: NCI growth inhibition (SRB) assay; format: cell-based; conditions: Homo sapiens, RPMI-8226, Leukemia, single dose 10 µM, 48 h, read-out: Percent Growth Inhibition (GI)
Method: as §1, §2

[9] = test system: K-562; assay: NCI growth inhibition (SRB) assay; format: cell-based; conditions: Homo sapiens, K562, K-562, Leukemia, single dose 10 µM, 48 h, read-out: Percent Growth Inhibition (GI)
Method: as §1, §2

[10] = test system: SR; assay: NCI growth inhibition (SRB) assay; format: cell-based; conditions: Homo sapiens, Leukemia, single dose 10 µM, 48 h, read-out: Percent Growth Inhibition (GI)
Method: as §1, §2

[11] = test system: T-47D; assay: NCI growth inhibition (SRB) assay; format: cell-based; conditions: Homo sapiens, T47D, Breast Cancer, single dose 10 µM, 48 h, read-out: Percent Growth Inhibition (GI)
Method: as §1, §2

[12] = test system: 786-0; assay: NCI growth inhibition (SRB) assay; format: cell-based; conditions: Homo sapiens, 786-0, Renal Cancer, single dose 10 µM, 48 h, read-out: Percent Growth Inhibition (GI)
Method: as §1, §2

[13] = test system: NCI-H522; assay: NCI growth inhibition (SRB) assay; format: cell-based; conditions: Homo sapiens, NCI-H522, Non-Small Cell Lung Cancer, single dose 10 µM, 48 h, read-out: Percent Growth Inhibition (GI)
Method: as §1, §2

[14] = test system: IGROV1; assay: NCI growth inhibition (SRB) assay; format: cell-based; conditions: Homo sapiens, IGROV-1, IGROV1, Ovarian Cancer, single dose 10 µM, 48 h, read-out: Percent Growth Inhibition (GI)
Method: as §1, §2

[15] = test system: CCRF-CEM; assay: NCI growth inhibition (SRB) assay; format: cell-based; conditions: Homo sapiens, Leukemia, single dose 10 µM, 48 h, read-out: Percent Growth Inhibition (GI)
Method: as §1, §2

[16] = test system: ACHN; assay: NCI growth inhibition (SRB) assay; format: cell-based; conditions: Homo sapiens, Renal Cancer, single dose 10 µM, 48 h, read-out: Percent Growth Inhibition (GI)
Method: as §1, §2

[17] = biological target: T1, DAPK1 (Homo sapiens, UniProt P53355); assay: In vitro kinase inhibition assay (HotSpot, Reaction Biology); format: biochemical; conditions: single dose of 10 µM; read-out: Percent Inhibition, DAPK1
T1 construct: purchased Reaction Biology Corp
Method: (§3) The in vitro kinase inhibition assay was carried out by Reaction Biology Corp. (Reaction Biology Corp., Chester, PA, USA) Kinase HotSpot^SM service (http://www.reactionbiology.com, accessed on 15 January 2021), following the previously reported methods. (For details, see Supplementary Material).
(§4) As mentioned in the introduction, to get insights about the kinase inhibition profile of the hybrid small molecule 5a, an in vitro screening over a panel of 14 cancer-related kinases was carried out. Accordingly, 10 µM concentrations of compound 5a were used in a kinase inhibition assay over various kinase groups and families in the presence of 10 µM ATP using HotSpotSM technology. To get a comprehensive picture of the inhibitory activities of the tested compound (5a) against the kinase panel, data are illustrated in Table 1. […] Compound 5a was also able to suppress the kinase activity of the epidermal growth factor receptor (EGFR), platelet-derived growth factor receptor-alpha (PDGFRα), and cyclin-dependent kinase 2 (CDK2) with modest inhibition values of 26.99 ± 0.9, 24.0 ± 0.4, and 20.1 ± 0.1%, respectively. […] Several studies have confirmed direct relationships between the most affected kinases (FMS, LCK, LYN, and DAPK1) and different human disorders including cancer.
(§5) 5. Protocol of Kinase assay
(§6) Kinases inhibitory activities were assessed by the HotSpot assay platform, which contained specific kinase/substrate pairs along with required cofactors. Base reaction buffer: 20 mM Hepes (pH 7.5), 10 mM MgCl2, 1 mM EGTA, 0.02% Brij35, 0.02 mg/ml BSA, 0.1 mM Na3VO4, 2 mM DTT, 1% DMSO. Testing compounds were dissolved in 100% DMSO to specific concentration. The serial dilution was conducted by Integra Viaflo Assist in DMSO. The reaction mixture containing the examined compound and 33P-ATP was incubated at room temperature for 2h and radioactivity was detected by filter-binding method. Kinase activity data were expressed as the percent remaining kinase activity in test samples compared to vehicle (dimethyl sulfoxide) reactions. IC50 values and curve fits were obtained using Prism (GraphPad Software).
(§7) 6. Biology raw data for IC50 determination
(§8) Paper ID Cpd ID NSC Number

[18] = biological target: T2, LCK (Homo sapiens, UniProt P06239); assay: as above; format: biochemical; conditions: single dose of 10 µM; 10 µM ATP as printed; read-out: Percent Inhibition, LCK
T2 construct: purchased Reaction Biology Corp
Method: as §3, §4, §5, §6, §7, §8

[19] = biological target: T3, LYN (Homo sapiens, UniProt P07948); assay: as above; format: biochemical; conditions: single dose of 10 µM; 10 µM ATP as printed; read-out: Percent Inhibition, LYN
T3 construct: purchased Reaction Biology Corp
Method: as §3, §4, §5, §6, §7, §8

T2 sequence (P06239 whole entry): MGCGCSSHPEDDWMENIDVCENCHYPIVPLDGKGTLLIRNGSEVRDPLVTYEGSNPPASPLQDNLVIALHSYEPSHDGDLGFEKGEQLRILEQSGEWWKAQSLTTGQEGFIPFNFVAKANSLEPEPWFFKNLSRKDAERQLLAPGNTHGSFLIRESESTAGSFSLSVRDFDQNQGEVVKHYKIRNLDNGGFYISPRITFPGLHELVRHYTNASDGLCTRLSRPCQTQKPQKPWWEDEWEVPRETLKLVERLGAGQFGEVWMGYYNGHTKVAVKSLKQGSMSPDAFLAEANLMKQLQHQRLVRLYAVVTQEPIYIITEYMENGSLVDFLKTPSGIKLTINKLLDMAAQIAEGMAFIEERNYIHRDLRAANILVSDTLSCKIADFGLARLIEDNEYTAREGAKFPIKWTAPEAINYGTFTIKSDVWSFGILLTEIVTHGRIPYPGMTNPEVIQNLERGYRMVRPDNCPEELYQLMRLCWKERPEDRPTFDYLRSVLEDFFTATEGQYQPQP
T3 sequence (P07948 whole entry): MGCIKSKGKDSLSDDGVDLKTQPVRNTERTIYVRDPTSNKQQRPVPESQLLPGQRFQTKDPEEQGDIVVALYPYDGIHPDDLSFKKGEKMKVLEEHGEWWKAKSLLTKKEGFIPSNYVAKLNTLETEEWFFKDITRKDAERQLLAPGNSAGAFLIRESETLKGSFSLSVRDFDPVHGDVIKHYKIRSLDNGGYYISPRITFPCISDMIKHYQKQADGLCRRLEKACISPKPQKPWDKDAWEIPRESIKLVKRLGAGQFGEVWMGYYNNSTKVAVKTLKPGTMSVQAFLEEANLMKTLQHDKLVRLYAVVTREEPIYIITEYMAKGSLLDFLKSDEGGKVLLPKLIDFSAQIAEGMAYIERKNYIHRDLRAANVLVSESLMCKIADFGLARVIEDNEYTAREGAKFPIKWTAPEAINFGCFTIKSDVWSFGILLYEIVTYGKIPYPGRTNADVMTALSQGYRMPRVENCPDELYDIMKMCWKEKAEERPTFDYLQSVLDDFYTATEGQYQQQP
T1 sequence (P53355 whole entry): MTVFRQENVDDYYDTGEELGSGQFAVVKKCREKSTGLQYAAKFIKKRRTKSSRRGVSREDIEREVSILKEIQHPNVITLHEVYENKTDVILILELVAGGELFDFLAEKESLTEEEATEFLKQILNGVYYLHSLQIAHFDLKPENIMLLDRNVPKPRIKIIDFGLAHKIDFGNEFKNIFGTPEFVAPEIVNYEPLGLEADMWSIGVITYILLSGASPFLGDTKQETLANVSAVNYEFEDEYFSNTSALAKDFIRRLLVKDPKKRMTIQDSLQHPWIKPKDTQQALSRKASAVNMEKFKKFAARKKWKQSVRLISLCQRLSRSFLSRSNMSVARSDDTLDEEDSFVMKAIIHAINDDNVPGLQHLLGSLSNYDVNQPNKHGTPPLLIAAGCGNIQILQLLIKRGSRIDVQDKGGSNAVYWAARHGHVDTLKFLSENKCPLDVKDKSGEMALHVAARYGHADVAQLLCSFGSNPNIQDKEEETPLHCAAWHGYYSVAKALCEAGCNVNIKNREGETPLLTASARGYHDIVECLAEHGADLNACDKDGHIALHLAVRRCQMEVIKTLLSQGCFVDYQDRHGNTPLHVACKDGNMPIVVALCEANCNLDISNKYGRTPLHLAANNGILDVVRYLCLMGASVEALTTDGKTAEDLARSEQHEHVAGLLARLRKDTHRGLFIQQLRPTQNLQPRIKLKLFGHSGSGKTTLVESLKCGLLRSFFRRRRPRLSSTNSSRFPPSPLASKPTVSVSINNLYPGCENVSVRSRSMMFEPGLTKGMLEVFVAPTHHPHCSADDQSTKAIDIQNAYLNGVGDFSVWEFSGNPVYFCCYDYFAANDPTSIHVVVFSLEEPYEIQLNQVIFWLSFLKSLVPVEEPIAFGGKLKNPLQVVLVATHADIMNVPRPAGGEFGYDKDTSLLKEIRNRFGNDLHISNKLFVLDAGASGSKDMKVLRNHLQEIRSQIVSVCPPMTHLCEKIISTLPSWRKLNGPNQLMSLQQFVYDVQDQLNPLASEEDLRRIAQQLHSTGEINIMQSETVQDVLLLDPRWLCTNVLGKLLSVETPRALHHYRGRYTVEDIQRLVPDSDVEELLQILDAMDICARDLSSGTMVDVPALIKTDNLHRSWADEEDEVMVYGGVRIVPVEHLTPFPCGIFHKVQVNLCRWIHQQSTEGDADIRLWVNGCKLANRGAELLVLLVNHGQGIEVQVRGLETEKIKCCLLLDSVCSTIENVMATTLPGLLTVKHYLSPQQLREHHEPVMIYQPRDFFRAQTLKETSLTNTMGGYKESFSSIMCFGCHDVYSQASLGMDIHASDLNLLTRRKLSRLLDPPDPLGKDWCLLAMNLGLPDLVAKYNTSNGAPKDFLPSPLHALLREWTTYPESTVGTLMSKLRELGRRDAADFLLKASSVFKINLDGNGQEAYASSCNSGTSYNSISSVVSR

Row | SMILES | inhibition at 10 µM [1] | inhibition at 10 µM [2] | inhibition at 10 µM [3] | inhibition at 10 µM [4] | inhibition at 10 µM [5] | inhibition at 10 µM [6] | inhibition at 10 µM [7] | inhibition at 10 µM [8] | inhibition at 10 µM [9] | inhibition at 10 µM [10] | inhibition at 10 µM [11] | inhibition at 10 µM [12] | inhibition at 10 µM [13] | inhibition at 10 µM [14] | inhibition at 10 µM [15] | inhibition at 10 µM [16] | inhibition at 10 µM [17] | inhibition at 10 µM [18] | inhibition at 10 µM [19]
1 | COc1ccc(Oc2nc(Nc3ccc(N4CCOCC4)cc3)ncc2NC(=O)c2ccc3c(c2)OCO3)cc1 [5a, N-(4-(4-Methoxyphenoxy)-2-((4-morpholinophenyl)amino)pyrimidin-5-yl)benzo[d][1,3]dioxole-5-carboxamide] | 36.7% | 6.16% | 8.51% | 31.1% | 50.5% | 22.4% | 12.7% | 21.8% | 23.4% | 37.1% | 6.78% | 25.3% | 22.7% | 5.92% | 14.5% | 8.91% | 55 ± 1.1% | 81.4 ± 0.6% | 75.2%
2 | COc1ccc(Oc2nc(Nc3ccc(N4CCOCC4)cc3)ncc2NC(=O)c2ccc(OC)c(OC)c2)cc1 [5b, 3,4-Dimethoxy-N-(4-(4-methoxyphenoxy)-2-((4-morpholinophenyl)amino)pyrimidin-5-yl)benzamide] | 33.6% | -1.19% | 4.24% | 19.9% | 20.4% | -5.56% | -4.34% | 11.1% | 8.76% | 18.8% | 2.41% | 17.6% | -3.5% | 3.6% | 5.37% | -7.28% | 65 ± 1.2% | 62.3 ± 0.8% | 36.9 ± 4.5%
3 | COc1ccc(Oc2nc(Nc3ccc(N4CCOCC4)cc3)ncc2NC(=O)c2cc(OC)c(OC)c(OC)c2)cc1 [5c, 3,4,5-Trimethoxy-N-(4-(4-methoxyphenoxy)-2-((4-morpholinophenyl)amino)pyrimidin-5-yl)benzamide] | 42.3% | 15.8% | 7.94% | 31.6% | 50.6% | 38.3% | 3.99% | 18.8% | 20.4% | 64.4% | 0.52% | 44.2% | 2.25% | 11.9% | 30.5% | 4.83% | 50 ± 0.1% | 19.4 ± 0.9% | -1.6 ± 0.3%
4 | CCOc1cc(OCC)cc(C(=O)Nc2cnc(Nc3ccc(N4CCOCC4)cc3)nc2Oc2ccc(OC)cc2)c1 [5d, 3,5-Diethoxy-N-(4-(4-methoxyphenoxy)-2-((4-morpholinophenyl)amino)pyrimidin-5-yl)benzamide] | 29.9% | 3.34% | 14.4% | 38.2% | 27.5% | 17.9% | 14% | 25.6% | 30.7% | 33.2% | 18.4% | 7.41% | 29.8% | 0.72% | 26.1% | 20.4% | 51.6 ± 0.5% | 38.3 ± 4.2% | 31.5 ± 5.8%
5 | COc1ccc(Oc2nc(Nc3ccc(N4CCOCC4)cc3)ncc2NC(=O)Cc2cc(OC)cc(OC)c2)cc1 [5e, 2-(3,5-Dimethoxyphenyl)-N-(4-(4-methoxyphenoxy)-2-((4-morpholinophenyl)amino)pyrimidin-5-yl)acetamide] | 19.4% | 4.46% | 18.9% | -0.81% | -8.16% | -6.85% | 1.32% | 11.3% | 2.31% | 13.2% | 10.2% | 0.75% | 8.4% | -9.02% | -4.73% | -0.26% | 47.1 ± 0.7% | 39.5 ± 0.4% | 7.9 ± 0.4%
6 | COc1ccc(Oc2nc(Nc3ccc(N4CCOCC4)cc3)ncc2NC(=O)c2ccnc([N+](=O)[O-])c2)cc1 [5f, N-(4-(4-Methoxyphenoxy)-2-((4-morpholinophenyl)amino)pyrimidin-5-yl)-2-nitroisonicotinamide] | 29% | 1.12% | 12.5% | -5.98% | -0.36% | 6.39% | -1.85% | 16.3% | 10.9% | 27.4% | 5.93% | 5.78% | 9.77% | 1.91% | 16.7% | 1.61% | 65.5 ± 1.4% | 72.6 ± 0.6% | 34.1 ± 2.2%

From article PMC8468039, “Development of New Meridianin/Leucettine-Derived Hybrid Small Molecules as Nanomolar Multi-Kinase Inhibitors with Antitumor Activity” (Biomedicines, 2021)
